From patent US20210268101A1 (priority 2020, published 2021)
Values joined by “and” are separate entries in the source; they are usually repeats but may differ in a detail not shown here. Identical values can stand only once. Like-named read-outs stand apart in the source and are kept apart here.

Tested on: Balb/c mice
Settings: serum 1:50

## DGQEEKAGVVSTGLIGGGVILLNKHIDAYKTF [DerG-NP350]
Cutoff OD 0.3 (A450), Day 10
  Responders/Group Total (n = 8): 8 and 8/8
Cutoff OD 0.3 (A450), Day 19
  Responders/Group Total (n = 8): 8/8
Cutoff OD 0.3 (A450), Day 28
  Responders/Group Total (n = 8): 8/8
Cutoff OD 0.3 (A450), Day 42
  Responders/Group Total (n = 8): 8/8
Cutoff OD 0.5 (A450), Day 10
  Responders/Group Total (n = 8): 8 and 8/8
Cutoff OD 0.5 (A450), Day 19
  Responders/Group Total (n = 8): 8/8
Cutoff OD 0.5 (A450), Day 28
  Responders/Group Total (n = 8): 8/8
Cutoff OD 0.5 (A450), Day 42
  Responders/Group Total (n = 8): 8/8
Cutoff OD 1.0 (A450), Day 10
  Responders/Group Total (n = 8): 2/8
Cutoff OD 1.0 (A450), Day 28
  Responders/Group Total (n = 8): 8/8
Cutoff OD 1.0 (A450), Day 42
  Responders/Group Total (n = 8): 8/8
Cutoff OD 1.5 (A450), Day 10
  Responders/Group Total (n = 8): 0/8
Cutoff OD 1.5 (A450), Day 28
  Responders/Group Total (n = 8): 8/8
Cutoff OD 1.5 (A450), Day 42
  Responders/Group Total (n = 8): 8/8

## DLLKNGERIEKVEGGGVILLNKHIDAYKTF [J-NP350]
Cutoff OD 0.3 (A450), Day 19
  Responders/Group Total (n = 8): 7/8
Cutoff OD 0.3 (A450), Day 28
  Responders/Group Total (n = 8): 8/8
Cutoff OD 0.3 (A450), Day 42
  Responders/Group Total (n = 8): 8/8
Cutoff OD 0.5 (A450), Day 19
  Responders/Group Total (n = 8): 7/8
Cutoff OD 0.5 (A450), Day 28
  Responders/Group Total (n = 8): 8/8
Cutoff OD 0.5 (A450), Day 42
  Responders/Group Total (n = 8): 8/8
Cutoff OD 1.0 (A450), Day 10
  Responders/Group Total (n = 8): 0/8
Cutoff OD 1.0 (A450), Day 19
  Responders/Group Total (n = 8): 6 and 6/8
Cutoff OD 1.0 (A450), Day 28
  Responders/Group Total (n = 8): 8/8
Cutoff OD 1.0 (A450), Day 42
  Responders/Group Total (n = 8): 8/8
Cutoff OD 1.5 (A450), Day 10
  Responders/Group Total (n = 8): 0/8
Cutoff OD 1.5 (A450), Day 19
  Responders/Group Total (n = 8): 1/8
Cutoff OD 1.5 (A450), Day 28
  Responders/Group Total (n = 8): 2/8
Cutoff OD 1.5 (A450), Day 42
  Responders/Group Total (n = 8): 6 and 6/8
